Activity calls are given as the source filed them. The calls are words filed in the database; no cut-off is given here.
How the values were obtained:
Mus musculus [1] = assay: Inhibition of choroidal neovascularization in mouse with laser-induced Bruch's membrane disruption at 5 ug dosed on day 0 and 7 and measured on day 14; assay type: functional, organism-based
Mus musculus [2] = assay: Inhibition of VEGF-induced retinal permeability in mouse at 5 ug dosed as single intraocular injection followed by Evan blue dye injection 6 hrs post drug dose and measured after 2 hrs; assay type: functional, organism-based
Mus musculus [3] = assay: Reduction in oxygen-induced retinopathy in mouse placed in 75% oxygen-environment from day 5 to 12 assessed as reduction in neovascularization at 5 ug dosed via intraocular injection on day 12 and 15 and measured on day 17; assay type: functional, organism-based
Mus musculus [4] = assay: Reduction in LPS-induced acute lung injury in mouse assessed as reduction in number of cells in BALF at 5 mg/kg dosed 2 hrs post LPS challenge; assay type: functional, organism-based
Mus musculus [5] = assay: Reduction in LPS-induced acute lung injury in mouse assessed as reduction in protein concentration at 5 mg/kg dosed 2 hrs post LPS challenge; assay type: functional, organism-based
Mus musculus [6] = assay: Anti-inflammatory activity in mouse model of collagen-induced arthritis assessed as reduction in arthritic index at 10 to 60 mg/kg, BID for 14 days and measured up to 15 days post dose; assay type: functional, organism-based
Homo sapiens [7] = organism: Homo sapiens; assay: Antiinvasive activity against human LOX cells assessed as inhibition of 5% FBS-induced cell invasion at 30 uM by Matrigel based cell invasion assay; assay type: functional
Mus musculus [8] = assay: Inhibition of VEGF-induced retinal permeability in mouse at 500 ng dosed as single intraocular injection followed by Evan blue dye injection 6 hrs post drug dose and measured after 2 hrs; assay type: functional, organism-based
Influenza A virus = assay: Antiviral activity against Influenza A virus (H1N1) infected in mouse assessed as reduction in virus-infection induced mortality by measuring mouse survival at 20 mg/kg, ip qd for 5 days dosed 4 hrs before virus infection; assay type: functional, organism-based
Rattus norvegicus = assay: Inhibition of VEGF-induced retinal permeability in rat assessed as reduction in vascular leak at 60 mg/kg, ip dosed 1 hr before VEGF injection on day1 followed by Evan blue dye injection on day2 and measured on day 3; assay type: functional, organism-based
Mus musculus [9] = assay: Inhibition of VEGF-induced retinal permeability in mouse at 50 ng dosed as single intraocular injection followed by Evan blue dye injection 6 hrs post drug dose and measured after 2 hrs; assay type: functional, organism-based
LN-229 = assay: Antiproliferative activity against human LN229 cells assessed as inhibition of cell proliferation at >1 uM by WST8 dye based colorimetric assay; assay type: functional
Homo sapiens [10] = organism: Homo sapiens; assay: Antiproliferative activity against human LOX cells assessed as inhibition of cell proliferation at >1 uM by WST8 dye based colorimetric assay; assay type: functional
[11] = biological target: PH and SEC7 domain-containing protein 1 (Mus musculus) (UniProt Q5DTT2); assay: Inhibition of Arf6 activation in mouse NIH/3T3 cells assessed as effect on GTP-bound Arf6 incubated for 4 hrs immobilized GST-tagged Gga3 by based pull down assay; assay type: cell-based
[12] = Antiinvasive activity against human LOX cells assessed as inhibition of 5% FBS-induced cell invasion at 1 uM by Matrigel based cell invasion assay; assay type: functional
Mus musculus [13] = assay: Inhibition of choroidal neovascularization in mouse with laser-induced Bruch's membrane disruption dosed on day 0 and 7 and measured on day 14; assay type: functional, organism-based
Mus musculus [14] = assay: Reduction in LPS-induced acute lung injury in mouse assessed as reduction in number of cells in BALF at 60 mg/kg dosed 3 hrs post LPS challenge; assay type: functional, organism-based
Mus musculus [15] = assay: Reduction in LPS-induced acute lung injury in mouse assessed as reduction in number of cells in BALF at 60 mg/kg dosed 4 hrs post LPS challenge; assay type: functional, organism-based
Mus musculus [16] = assay: Reduction in LPS-induced acute lung injury in mouse assessed as reduction in protein concentration at 60 mg/kg dosed 3 hrs post LPS challenge; assay type: functional, organism-based
Mus musculus [17] = assay: Reduction in LPS-induced acute lung injury in mouse assessed as reduction in protein concentration at 60 mg/kg dosed 4 hrs post LPS challenge; assay type: functional, organism-based

Chain of PH and SEC7 domain-containing protein 1 (Mus musculus) (Q5DTT2 whole entry, the tested form may be a part): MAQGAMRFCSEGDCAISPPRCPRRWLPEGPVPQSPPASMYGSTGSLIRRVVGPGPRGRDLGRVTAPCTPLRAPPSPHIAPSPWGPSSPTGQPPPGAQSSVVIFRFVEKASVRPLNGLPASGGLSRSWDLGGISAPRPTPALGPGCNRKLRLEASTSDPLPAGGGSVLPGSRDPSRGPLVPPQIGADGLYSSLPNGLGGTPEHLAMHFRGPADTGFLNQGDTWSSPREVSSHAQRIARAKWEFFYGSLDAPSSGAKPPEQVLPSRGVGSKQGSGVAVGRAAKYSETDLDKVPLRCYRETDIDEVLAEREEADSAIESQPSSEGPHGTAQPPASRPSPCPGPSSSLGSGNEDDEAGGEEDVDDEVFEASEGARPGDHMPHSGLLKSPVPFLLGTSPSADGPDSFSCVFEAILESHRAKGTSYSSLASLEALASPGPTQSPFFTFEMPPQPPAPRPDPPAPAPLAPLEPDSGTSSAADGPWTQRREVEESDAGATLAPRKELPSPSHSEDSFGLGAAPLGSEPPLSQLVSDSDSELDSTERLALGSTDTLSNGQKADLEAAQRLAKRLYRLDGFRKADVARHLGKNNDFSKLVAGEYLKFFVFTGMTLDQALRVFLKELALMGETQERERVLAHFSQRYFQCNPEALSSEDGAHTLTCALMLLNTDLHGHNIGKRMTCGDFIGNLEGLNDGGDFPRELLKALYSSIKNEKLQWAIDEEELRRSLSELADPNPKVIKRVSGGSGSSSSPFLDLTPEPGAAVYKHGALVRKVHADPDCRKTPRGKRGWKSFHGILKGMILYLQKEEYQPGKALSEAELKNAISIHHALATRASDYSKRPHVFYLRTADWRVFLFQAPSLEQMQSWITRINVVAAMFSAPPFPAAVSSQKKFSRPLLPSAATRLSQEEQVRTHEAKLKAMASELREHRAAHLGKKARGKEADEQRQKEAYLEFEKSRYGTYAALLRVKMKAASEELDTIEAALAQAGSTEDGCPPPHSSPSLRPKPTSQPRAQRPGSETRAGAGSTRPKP

CN(C)c1ccc(/C=C2/C(=O)Nc3ccccc32)cc1
inhibition (Mus musculus [1]): Active
inhibition (Mus musculus [2]): inactive
inhibition (Mus musculus [3]): Active

C[C@@H]1C[C@H]2[C@@H]3CCC4=CC(=O)C=C[C@]4(C)[C@@]3(F)[C@@H](O)C[C@]2(C)[C@@]1(O)C(=O)CO
inhibition (Mus musculus [4]): Active
inhibition (Mus musculus [5]): Active

O=c1cc(-c2cccc(Oc3ccccc3)c2)[nH]c2c(-c3ccc(Cl)c(Cl)c3)c(C(F)(F)F)nn12
inhibition (Mus musculus [3]): Active
Activity (Mus musculus [6]): Dose-dependent effect

COc1nc(-c2ccc3c(c2)OCO3)n(-c2ccc(NC(=O)CSc3ccccc3)cc2)n1
inhibition (Homo sapiens [7]): Active

O=c1cc(Cc2ccccc2)[nH]c2c(-c3ccc(Cl)cc3)c(C(F)(F)F)nn12
inhibition (Mus musculus [8]): Active
Activity (Influenza A virus): Active

COc1ccc(-c2c(Cc3ccccc3)nn3c(=O)cc(C)[nH]c23)cc1
inhibition (Mus musculus [8]): Active

O=c1cc(-c2ccc([N+](=O)[O-])cc2)[nH]c2c(-c3ccc(Cl)cc3)c(Cc3ccccc3)nn12
inhibition (Rattus norvegicus): Active
inhibition (Mus musculus [9]): Active
inhibition (Mus musculus [8]): Active
inhibition (LN-229): Active
inhibition (Homo sapiens [10]): Active
inhibition [11]: Active
inhibition at 1 µM [12]: 100%
inhibition (Mus musculus [13]): Dose-dependent effect
inhibition (Mus musculus [3]): Active
inhibition (Mus musculus [14]): Active
inhibition (Mus musculus [15]): Active
inhibition (Mus musculus [16]): Active
inhibition (Mus musculus [17]): Active
